Measured values reported in patent US7678390B2, “Carbon monoxide as a biomarker and therapeutic agent” (priority 1999, dated 2010).

Experiments:
[1] = test system: rats given lipopolysaccharide; assay: LPS-induced neutrophil influx into the airways of rats; format: in vivo, rat; details: LPS 3 mg/kg i.v., exposed to CO
Experimental: Animals were anesthesized with sodium pentobarbital 24 h after LPS administration or 56 h of hyperoxia exposure. BAL (35 ml/kg) was performed 4 times with PBS (pH 7.4). Cells were pooled from the lavages and centrifuged at 1200 g for 10 min. The supernatant was discarded and cells were resuspended in PBS. Cell counts were performed using a Neubaur hemocytometer. For differential analysis, samples were cytocentrifuged and stained with Diff-Quik. Measurement of Injury Markers Rats were removed at 56 h of hyperoxia and anesthetized with sodium pentobarbital. The pleural effusion was collected by inserting an 18 gauge needle and 10 cc syringe through the diaphragm and withdrawing all fluid present in the pleural cavity. BAL was performed as described above, and the first lavage was centrifuged at 1200 g for 10 min and the supernatant was assayed for the protein albumin as determined by Bromcresol Green Kit (BCG) from Sigma (St. Louis, Mo.). […] At each time point, 1 cc of blood was drawn into a heparinized syringe, sealed and placed on ice until analyzed for oxygen tension. Arterial oxygen tension and carboxyhemoglobin were determined using a BG3 Instrumentation Laboratory Blood Gas Analyzer and Co-oximeter (Boston, Mass.). […]

rats = assay: Tolerability of low concentrations of CO in rats; format: in vivo, rat
Text: Animals were exposed to >98% O2 or 98% O2+CO mixtures at a flow rate of 12 liters/min in a 3.70-cubic-foot glass exposure chamber. Animals were supplied food and water during the exposures. CO at a concentration of 1% (10,000 ppm) in compressed air was mixed with >98% O2 in a stainless steel mixing cylinder prior to entering the exposure chamber. By varying the flow rates of CO into the mixing cylinder, concentrations delivered to the exposure chamber were controlled. Because the flow rate was primarily determined by the O2 flow, only the CO flow was changed to generate the different concentrations delivered to the exposure chamber. A carbon monoxide analyzer (Interscan Corporation, Chatsworth, Calif.) was used to measure CO levels continuously in the chamber. Gas samples were taken by the analyzer through a port in the top of the exposure chamber at a rate of 1 liter/min and analyzed by electrochemical detection with a sensitivity of 10 ppm to 600 ppm. CO levels in the chamber were recorded at hourly intervals and there were no changes in chamber CO concentrations once the chamber had equilibrated. O2 concentrations in the chamber were determined using a gas spectrometer.

Q: What does the source list for `[C-]#[O+]` [CO, carbon monoxide]?
A: LPS-induced neutrophil influx into the airways [1]: significantly inhibited; 500 ppm as fraction of the lethal concentration of CO (rats; in our model (data not shown)): one twentieth; untoward effects (rats; rats exposed to CO (50-500 ppm) alone): did not exhibit any untoward effects
